Measured values taken from the supplement of paper PMC10307832.

Tests used:
Experiment in all cases: relative viability (nuclei count vs DMSO), 5 days (fraction); higher = more cells survive
CUDC-101 + Phenformin = compound: C#Cc1cccc(Nc2ncnc3cc(OC)c(OCCCCCCC(=O)NO)cc23)c1 [CUDC-101] + N=C(N)NC(=N)NCCc1ccccc1 [Phenformin] (partner 250 µM)
Summary of the method: (§1)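 For relative viability, nuclei counts in treated wells were divided by those in vehicle wells. Lung cancer cell lines had been pin-tool dosed in 1536-well plates the day after seeding and cultured for 5 days, then fixed and stained in one step (final 0.05% Triton X-100, 1% formaldehyde, 1 ug/ml Hoechst) and imaged at 4×. Doses were one drug alone or a fixed anchor-drug dose plus five library-drug doses (not always all listed) in √10 steps, and values are duplicate-plate medians.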

[1] = compound: C1=CC=C2C(=C1)N=C(S2)C(C#N)C3=NC(=NC=C3)NCCC4=CN=CC=C4 + CC(=O)Nc1cccc(-n2c(=O)n(C3CC3)c(=O)c3c(Nc4ccc(I)cc4F)n(C)c(=O)c(C)c32)c1 [Trametinib] (partner 0.02 µM)
Summary of the method: as §1

NVP-TAE684 + Navitoclax = compound: COc1cc(N2CCC(N3CCN(C)CC3)CC2)ccc1Nc1ncc(Cl)c(Nc2ccccc2S(=O)(=O)C(C)C)n1 [NVP-TAE684] + CC1(C)CCC(c2ccc(Cl)cc2)=C(CN2CCN(c3ccc(C(=O)NS(=O)(=O)c4ccc(N[C@H](CCN5CCOCC5)CSc5ccccc5)c(S(=O)(=O)C(F)(F)F)c4)cc3)CC2)C1 [Navitoclax] (partner 0.5 µM)
Summary of the method: as §1

Vandetanib + Palbociclib = compound: COc1cc2/c(=N/c3ccc(Br)cc3F)nc[nH]c2cc1OCC1CCN(C)CC1 [Vandetanib] + CC(=O)c1c(C)c2cnc(Nc3ccc(N4CCNCC4)cn3)nc2n(C2CCCC2)c1=O [Palbociclib] (partner 0.5 µM)
Summary of the method: as §1

| Cell Line | relative viability (CUDC-101 + Phenformin; first compound 0.01 µM) | relative viability (CUDC-101 + Phenformin; first compound 0.03162 µM) | relative viability (CUDC-101 + Phenformin; first compound 0.1 µM) | relative viability (CUDC-101 + Phenformin; first compound 0.3162 µM) | relative viability (CUDC-101 + Phenformin; first compound 1 µM) | relative viability ([1]; first compound 0.005 µM) | relative viability ([1]; first compound 0.01581 µM) | relative viability ([1]; first compound 0.05 µM) | relative viability ([1]; first compound 0.1581 µM) | relative viability ([1]; first compound 0.5 µM) | relative viability (NVP-TAE684 + Navitoclax; first compound 0.2 µM) | relative viability (NVP-TAE684 + Navitoclax; first compound 0.6325 µM) | relative viability (NVP-TAE684 + Navitoclax; first compound 2 µM) | relative viability (Vandetanib + Palbociclib; first compound 0.02 µM) | relative viability (Vandetanib + Palbociclib; first compound 0.06325 µM) | relative viability (Vandetanib + Palbociclib; first compound 0.2 µM) | relative viability (Vandetanib + Palbociclib; first compound 0.6325 µM) | relative viability (Vandetanib + Palbociclib; first compound 2 µM) |
| --- | --- | --- | --- | --- | --- | --- | --- | --- | --- | --- | --- | --- | --- | --- | --- | --- | --- | --- |
| ChaGo-K-1 | 0.467 | 0.542 | 0.508 | 0.558 | 0.41 | 0.683 | 0.949 | 0.913 | 0.957 | 0.715 | 1.54 | 0.644 | 1.03 | 0.921 | 0.881 | 0.19 | 0.887 | 0.927 |
| NCI-H2126 | 0.556 | 0.532 | 0.517 | 0.52 | 0.403 | 0.536 | 0.613 | 0.559 | 0.546 | 0.58 | 0.951 | 0.84 | 0.621 | 0.338 | 0.348 | 0.328 | 0.356 | 0.35 |
| NCI-H520 | 0.55 | 0.494 | 0.576 | 0.581 | 0.247 | 0.659 | 0.684 | 0.765 | 0.799 | 0.824 | 1.11 | 1.13 | 0.357 | 0.254 | 0.196 | 0.293 | 0.273 | 0.256 |
| NCI-H1755 | 0.587 | 0.629 | 0.319 | 0.645 | 0.534 | 0.764 | 0.736 | 0.746 | 0.848 | 0.761 | 1.06 | 1.06 | 0.921 | 0.46 | 0.471 | 0.427 | 0.446 | 0.439 |
| NCI-H1650 | 0.405 | 0.313 | 0.36 | 0.452 | 0.188 | 0.49 | 0.492 | 0.604 | 0.715 | 0.513 | – | 1.08 | 0.545 | 0.34 | 0.291 | 0.289 | 0.318 | 0.244 |
| NCI-H2228 | 0.27 | 0.272 | 0.29 | 0.403 | 0.254 | 0.357 | 0.447 | 0.512 | 0.526 | 0.46 | 0.443 | 0.421 | 0.129 | 0.718 | 0.644 | 0.804 | 0.725 | 0.659 |
| NCI-H2347 | 0.446 | 0.299 | 0.308 | 0.512 | 0.371 | 0.282 | 0.268 | 0.296 | 0.3 | 0.267 | 0.716 | 0.826 | 0.752 | 0.423 | 0.315 | 0.476 | 0.457 | 0.443 |
| HCC-15 | 0.434 | 0.432 | 0.521 | 0.556 | 0.376 | 0.396 | 0.418 | 0.369 | 0.378 | 0.356 | 0.72 | 0.681 | 0.375 | 0.647 | 0.713 | 0.646 | 0.75 | 0.721 |
| NCI-H23 | 0.793 | 0.743 | 0.81 | 0.851 | 0.789 | – | 0.436 | 0.391 | 0.406 | 0.45 | 0.806 | 0.785 | 0.607 | 0.416 | 0.427 | 0.489 | 0.54 | 0.495 |
| LC-2-ad | 0.65 | 0.651 | 0.689 | 0.551 | 0.287 | 0.881 | 0.979 | 0.891 | 0.928 | 0.829 | 0.394 | 0.264 | 0.12 | 0.466 | 0.489 | 0.526 | 0.441 | 0.422 |
| LCLC-97TM1 | 0.426 | 0.381 | 0.436 | 0.471 | 0.362 | 0.152 | 0.202 | 0.172 | 0.239 | 0.2 | 0.321 | 0.495 | 0.13 | 0.188 | 0.21 | 0.224 | 0.209 | 0.254 |
| HOP-62 | 0.628 | 0.656 | 0.758 | 0.683 | 0.545 | 0.359 | 0.394 | 0.394 | 0.37 | 0.366 | 1.23 | 1.13 | 1.1 | 0.421 | 0.437 | 0.431 | 0.509 | 0.412 |
| NCI-H2085 | 0.654 | 0.679 | 0.763 | 0.724 | 0.593 | 0.528 | 0.652 | 0.521 | 0.576 | 0.481 | 1.01 | 1.06 | 0.874 | 0.447 | 0.479 | 0.496 | 0.498 | 0.489 |
| NCI-H2087 | 0.403 | 0.465 | 0.439 | 0.413 | 0.316 | 0.222 | 0.201 | 0.203 | 0.212 | 0.186 | 1.11 | 1.17 | 0.766 | 0.244 | 0.196 | 0.183 | 0.281 | 0.212 |
| NCI-H1395 | 0.495 | 0.435 | 0.462 | 0.466 | 0.456 | 0.983 | – | 0.949 | 1.2 | 0.979 | 1.79 | 1.01 | 1.02 | 0.635 | 0.602 | 0.641 | 0.609 | 0.567 |
| COR-L 105 | 0.627 | 0.481 | 0.447 | 0.528 | 0.198 | 0.379 | 0.423 | 0.412 | 0.474 | 0.498 | 0.717 | 0.74 | 0.593 | 0.388 | 0.442 | 0.392 | 0.38 | 0.39 |
| CAL-12T | 0.67 | 0.563 | 0.617 | 0.616 | 0.513 | 0.278 | 0.327 | 0.395 | 0.34 | 0.384 | 1.35 | 1.18 | 0.407 | 0.562 | 0.474 | 0.482 | 0.22 | 0.172 |
| A-427 | 0.328 | 0.347 | 0.464 | 0.502 | 0.389 | 0.882 | 0.714 | 0.683 | 0.81 | 0.804 | 0.992 | – | 0.874 | 0.508 | 0.497 | 0.485 | 0.531 | 0.503 |
| NCI-H1975 | 0.415 | 0.401 | 0.416 | 0.425 | 0.378 | 0.377 | 0.362 | 0.293 | 0.414 | 0.329 | 1.06 | – | 0.513 | 0.539 | 0.542 | 0.593 | 0.585 | 0.61 |
| NCI-H1993 | 0.491 | 0.523 | 0.569 | 0.535 | 0.603 | 0.374 | 0.516 | 0.458 | 0.514 | 0.466 | – | 0.791 | 0.696 | 0.661 | 0.628 | 0.602 | 0.581 | 0.392 |
| NCI-H2023 | 0.406 | 0.379 | 0.438 | 0.481 | 0.341 | 0.602 | 0.532 | 0.547 | 0.538 | 0.489 | 0.965 | 1.04 | 0.775 | 0.359 | 0.369 | – | 0.314 | 0.319 |
| 201T | 0.438 | 0.442 | 0.424 | 0.411 | 0.358 | 0.675 | 0.756 | 0.739 | 0.748 | 0.693 | 1.21 | 1.19 | 1.12 | 0.35 | 0.353 | 0.332 | 0.314 | 0.335 |
| LK-2 | 0.369 | 0.727 | 0.411 | 0.479 | 0.15 | 0.535 | 0.604 | 0.907 | 0.74 | 0.838 | 0.777 | – | 0.449 | 0.57 | 0.811 | 0.859 | 0.58 | 0.66 |
| SW 1573 | 0.407 | 0.356 | 0.484 | 0.371 | 0.304 | 0.615 | 0.587 | 0.479 | 0.718 | 0.499 | 0.904 | 0.959 | 0.737 | 0.413 | 0.421 | – | 0.29 | 0.403 |
| NCI-H647 | 0.564 | 0.483 | 0.574 | 0.418 | 0.21 | 0.407 | 0.515 | 0.45 | 0.546 | 0.451 | 1.4 | 1.06 | 1.16 | 0.402 | 0.385 | 0.384 | 0.358 | 0.381 |
| HCC-78 | 0.709 | 0.705 | 0.675 | 0.602 | 0.246 | 1.01 | 0.782 | 0.924 | 0.693 | 0.729 | 0.433 | 0.535 | 0.282 | 0.443 | 0.485 | 0.479 | 0.518 | 0.446 |
| NCI-H727 | 0.591 | 0.476 | 0.297 | 0.604 | 0.362 | 0.39 | 0.364 | 0.399 | 0.381 | 0.407 | 0.381 | 0.331 | 0.153 | 0.622 | 0.692 | 0.679 | 0.578 | 0.56 |
| BEN | 0.29 | 0.259 | 0.239 | 0.256 | 0.209 | 1.08 | 1.11 | 1.15 | 1.05 | 1.2 | 0.188 | 0.0569 | 0.0697 | 0.458 | 0.46 | 0.443 | 0.479 | 0.448 |
| NCI-H441 | 0.88 | 0.486 | 0.764 | 0.917 | 0.776 | 0.444 | 0.409 | 0.432 | 0.49 | 0.307 | 0.472 | 0.583 | 0.319 | 0.221 | 0.253 | 0.21 | 0.197 | 0.171 |
| NCI-H1793 | 0.372 | 0.239 | 0.34 | 0.442 | 0.291 | – | 0.397 | 0.423 | 0.475 | 0.488 | 0.467 | 0.491 | 0.43 | 0.325 | 0.305 | 0.302 | 0.296 | 0.261 |
